Measurements from patent US20190201376A1, “Method for Treating or Preventing Fatty Acid Binding Protein 3 Induced B-amyloid Aggregation Diseases” (NATIONAL TAIWAN NORMAL UNIVERSITY, priority 2017, published 2019).

Assays:
[1] = biological target: T1, recombinant human FABP3 protein (FABP3-induced Aβ42 oligomerization) (Homo sapiens, UniProt P05413); assay: Western blot of Aβ42 oligomerization with recombinant FABP3 pre-incubated with artemisinin; type: biochemical; conditions: artemisinin 4 μM preincubated with FABP3 2.5 μM for four hours, then Aβ42 oligomers 2.5 μM 24 hours; 6E10 antibody, ImageJ; p<0.05
T1 construct: purchased Cayman Chemical
Description: Synthetic Aβ42 peptides (AnaSpec) were solubilized in hexafluoroisopropanol (HFIP), and then HFIP was allowed to be evaporated completely under nitrogen flow. Aβ42 peptides were resuspended using phosphate buffered saline (PBS) to […], and were incubated to assemble oligomers at room temperature for 24 hours prior to use. The oligomeric status of AP was verified by sodium dodecyl sulfate polyacrylamide gel electrophoresis (SDS-PAGE).
Afterwards, the oligomerization of Aβ42 was analyzed using western blot analysis and detected with 6E10 antibody.

[2] = test system: SH-SY5Y cells transfected with human FABP3; assay: MTT cell viability assay, Aβ42 cytotoxicity in FABP3-transfected SH-SY5Y cells; type: cell-based; conditions: pcDNA3/FABP3 SH-SY5Y cells, artemisinin (0-4 μM) pretreatment four hours, Aβ42 2.5 μM 24 hours; increased from 65% without artemisinin; p<0.01
Description: (§1) Human neuroblastoma SH-SY5Y cell line was obtained from American Type Culture Collection (ATCC® CRL-2266™) and maintained in Dulbecco's Modified Eagle Medium with nutrient mixture F-12 (DMEM/F12; Invitrogen) media supplemented with 10% FBS, 100 U/mL penicillin and 100 μg/mL streptomycin at 37° C. in a 5% CO2 humidified incubator.
(§2) Human FAPB3 cDNA, which was reverse transcribed from the total RNA of SH-SY5Y cells, was amplified by polymerase chain reaction (PCR) using primers (5′-[…] and 5′-TGCCTCTTCTCATAAGTG) and then cloned into pcDNA™3.1D/V5-His-TOPO vector (Invitrogen). SH-SY5Y cells stably expressing human FABP3 were obtained using lipofectamine transfection with selection via cultivation in DMEM/F12 medium (Gibco) containing 500 µg/mL G418 (Sigma-Aldrich).
Afterwards, purple formazan crystals formed by reduction of MTT in the mitochondria of living cells were dissolved in 100 μl solution containing 10% SDS and 0.01N HCl. The absorbance was measured at 570 nm with an ELISA reader (pQuant; BioTek Instruments, Inc).

[3] = test system: stably transfected human FABP3-SH-SY5Y cells; assay: Western blot of Aβ42 oligomerization in stably transfected human FABP3-SH-SY5Y cells; type: cell-based; conditions: artemisinin 4 μM pretreatment 4 hours, Aβ42 2.5 μM 24 hours
Description: as §1
as §2, with “5′-TGCCTCTrTCTCATAAGTG)” for “5′-TGCCTCTTCTCATAAGTG)”, “μg/mL” for “µg/mL”
Then, the stably transfected human FABP3-SH-SY5Y cells were washed with PBS and lysed with radioimmunoprecipitation (RIPA) buffer supplemented with cOmplete™ Protease Inhibitor Cocktail (Sigma-Aldrich). The samples with equal amounts of total protein (50 μg) were fractionated by SDS-PAGE and electrotransferred to a polyvinylidene difluoride (PVDF) membrane (Millipore). The membrane was blocked for one hour at room temperature with 10% nonfat milk in TBST buffer (20 mM Tris-HCl, 150 mM NaCl, and 0.1% Tween 20); thereafter, the membrane was incubated with 6E10 (BioLegend), FABP3 (Santa Cruz) or GAPDH (Santa Cruz) antibodies. […]

3×Tg AD transgenic mice [4] = assay: Morris water maze test; type: in vivo; conditions: 3×Tg AD mice, artemisinin 1 mg/kg i.p. every other day from 12 to 36 weeks of age, tested at 36 weeks; p<0.05
Description: In the present embodiment, 3×Tg AD transgenic mice were obtained from the Jackson Laboratory (004807), and wild-type C57BL/6 mice were purchased from the National Laboratory Animal Center. The body weights of the animals were measured every eight weeks from 12th to 36th week-old. The animals were i.p. administered with pure water or artemisinin (1 mg/kg) every other day from 12 weeks to 36 weeks of age; the WT-W group was water vehicle-treated wild-type mice; the AD-W group was water vehicle-treated 3×Tg AD transgenic mice; and AD-R group was artemisinin-treated 3×Tg AD transgenic mice. The animals were examined by using behavioral tasks, including Morris water maze test, spontaneous alternation behavior Y-maze test, and novel object recognition task test, when they were 36-week-old. To evaluate whether artemisinin ameliorates the spatial learning and memory deficits, the Morris water maze test was performed. […] After the last trail, mice were subjected to the probe test that the platform was removed, and the time spent in quadrants was recorded by a computer-controlled system.

3×Tg AD transgenic mice [5] = assay: Spontaneous alternation behavior Y-maze test; type: in vivo; conditions: 3×Tg AD mice, artemisinin 1 mg/kg i.p. every other day from 12 to 36 weeks of age, tested at 36 weeks
Description: In the present embodiment, 3×Tg AD transgenic mice were obtained from the Jackson Laboratory (004807), and wild-type C57BL/6 mice were purchased from the National Laboratory Animal Center. The body weights of the animals were measured every eight weeks from 12th to 36th week-old. The animals were i.p. administered with pure water or artemisinin (1 mg/kg) every other day from 12 weeks to 36 weeks of age; the WT-W group was water vehicle-treated wild-type mice; the AD-W group was water vehicle-treated 3×Tg AD transgenic mice; and AD-R group was artemisinin-treated 3×Tg AD transgenic mice. The animals were examined by using behavioral tasks, including Morris water maze test, spontaneous alternation behavior Y-maze test, and novel object recognition task test, when they were 36-week-old. The spontaneous alternation behavior Y-maze test was used to estimate short-term memory. The Y-maze was a three-arm maze (30 cm long and 5 cm wide with 12 cm in height) with equal angles and the arms were labeled A, B, and C. The 36-week-old mice (n=6 per group) administered with aforementioned treatment were initially placed within one arm, and the number of arm entries and the number of alternations were recorded for eight min period for each mouse. […] The percentage of alternation was calculated by the following equation: Alternation (%)=[(Number of alternation)/(Total arm entries−2)]×100.

3×Tg AD transgenic mice [6] = assay: Novel object recognition test; type: in vivo; conditions: 3×Tg AD mice, artemisinin 1 mg/kg i.p. every other day from 12 to 36 weeks of age, versus untreated 3×Tg AD mice; p<0.05
Description: In the present embodiment, 3×Tg AD transgenic mice were obtained from the Jackson Laboratory (004807), and wild-type C57BL/6 mice were purchased from the National Laboratory Animal Center. The body weights of the animals were measured every eight weeks from 12th to 36th week-old. The animals were i.p. administered with pure water or artemisinin (1 mg/kg) every other day from 12 weeks to 36 weeks of age; the WT-W group was water vehicle-treated wild-type mice; the AD-W group was water vehicle-treated 3×Tg AD transgenic mice; and AD-R group was artemisinin-treated 3×Tg AD transgenic mice. The animals were examined by using behavioral tasks, including Morris water maze test, spontaneous alternation behavior Y-maze test, and novel object recognition task test, when they were 36-week-old. The novel object recognition was conducted to examine whether artemisinin can restore recognition memory, which involves the frontal cortex, entorhinal cortex and hippocampus; it was used to evaluate the inborn tendency of the rodents to explore novel objects rather than familiar ones. During the first two days, mice were habituated to open field (50×40 cm, with 22 cm in height) for two sessions of 10 min each day in order to be familiar with the apparatus. […] The discrimination index was calculated as percentage ratio of TB/(TA+TB)×100. […]

T1 sequence (P05413 whole entry): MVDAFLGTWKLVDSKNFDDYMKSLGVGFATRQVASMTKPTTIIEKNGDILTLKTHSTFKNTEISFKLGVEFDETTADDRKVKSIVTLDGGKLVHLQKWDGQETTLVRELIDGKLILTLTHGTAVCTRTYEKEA

C[C@@H]1CC[C@H]2[C@@H](C)C(=O)O[C@@H]3O[C@@]4(C)CC[C@@H]1[C@]32OO4 [artemisinin]
decrease of Aβ42 tetramer induced by FABP3 [1]: 156%
decrease of Aβ42 trimer induced by FABP3 [1]: 144%
cell viability [2]: 85%
decrease of Aβ42 tetramer induced by FABP3 overexpression [3]: 87%
decrease of Aβ42 trimer induced by FABP3 overexpression [3]: 78%
time in finding the hidden platform (3×Tg AD transgenic mice [4]): significantly less time
spatial working memory (spontaneous alternation rate) (3×Tg AD transgenic mice [5]): restored spatial working memory to the extent similar as that of the wild-type group
increment in the discrimination index (3×Tg AD transgenic mice [6]): 56%
